Earlier results in US8509867B2, “Non-invasive measurement of analytes” (Cercacor Laboratories, Inc., priority 2002, dated 2013).

Experiments:
[1] = i.v., rats (Merck)

## COC(=O)c1ccccc1-c1c2ccc(=N)cc-2oc2cc(N)ccc12 [Rh123, (2-(6-Amino-3-imino-3H-xanthen-9-yl)benzoic acid methyl ester)]
[1]
  fifty percent lethality (LD50): 89.5 mg/kg
other
  intravenous lethal dose for animals (LD10): approximately 20 mg/kg of body weight
